From ChEMBL document CHEMBL1137173, “Synthesis of an unusual branched-chain sugar, 5-C-methyl-L-idopyranose for SAR studies of pyranmycins: implication for the future design of aminoglycoside antibiotics” (2004) come the findings set out here.

≈ marks a conversion by molar mass, not a printed value.

One test has as its system Staphylococcus aureus. As to the kind of experiment: Minimum inhibitory concentration required against Staphylococcus aureus. Type of test: functional.
Another test relates to Ribosomal RNA A-site. As to the kind of experiment: Binding affinity towards decoding region at A-site of 16s rRNA. Type of test: nucleic-acid assay. The arrangement: unit not given here.
In a further test the test system is Escherichia coli. As to the kind of experiment: Minimum inhibitory concentration required against Escherichia coli. The format is functional.
[1] abbreviates: Staphylococcus aureus, read-out: MIC.
Where [2] appears, read: Escherichia coli, read-out: MIC.

Take `C[C@]1(CO)O[C@@H](O[C@@H]2[C@H](O)[C@H](N)C[C@@H](N)[C@H]2O[C@H]2O[C@@H](CN)[C@@H](O)[C@H](O)[C@@H]2N)[C@@H](O)[C@@H](O)[C@@H]1O`: the MIC – broadly, the lowest concentration found to suppress growth – in the test with Staphylococcus aureus (setting [1]) is 27 µM (≈ 13.5 µg/mL); with Escherichia coli (setting [2]) it was 87 µM (≈ 43.4 µg/mL). Besides, the Activity in the test with Ribosomal RNA A-site was -318.

`C[C@@H]1O[C@@H](O[C@@H]2[C@H](O)[C@H](N)C[C@@H](N)[C@H]2O[C@H]2O[C@@H](CN)[C@@H](O)[C@H](O)[C@@H]2N)[C@@H](O)[C@@H](O)[C@@H]1O` (stereo in doubt; form 1): in the test with Ribosomal RNA A-site, the Activity is -320.

For the compound `C[C@@H]1O[C@@H](O[C@@H]2[C@H](O)[C@H](N)C[C@@H](N)[C@H]2O[C@H]2O[C@@H](CN)[C@@H](O)[C@H](O)[C@@H]2N)[C@@H](O)[C@@H](O)[C@@H]1O.Cl.Cl.Cl.Cl` (stereo in doubt; form 2), the MIC with Staphylococcus aureus was determined as 13 µM; with Escherichia coli it was 19 µM.

`NC[C@@H]1O[C@H](O[C@H]2[C@@H](O)[C@H](O[C@@H]3[C@@H](O)[C@H](N)C[C@H](N)[C@H]3O[C@H]3O[C@H](CN)[C@@H](O)[C@H](O)[C@H]3N)O[C@@H]2CO)[C@H](N)[C@@H](O)[C@@H]1O` [FRAMYCETIN]: the MIC turned out to be 3 µM (≈ 1.84 µg/mL) in the test on Staphylococcus aureus (setting [1]) and 2 µM (≈ 1.23 µg/mL) in the test with Escherichia coli (setting [2]). The same compound yielded an Activity in the test on Ribosomal RNA A-site of -474.

Turning to `NC[C@@H]1O[C@H](O[C@H]2[C@H](O[C@@H]3O[C@H](CN)[C@@H](O)[C@H](O)[C@@H]3O)[C@H](O)[C@H](N)C[C@H]2N)[C@@H](N)[C@@H](O)[C@@H]1O`, the results for the MIC in the test on Staphylococcus aureus (setting [1]) and with Escherichia coli (setting [2]) were 2 µM (≈ 0.967 µg/mL) and 9 µM (≈ 4.35 µg/mL), respectively. In the test with Ribosomal RNA A-site, this compound came in with an Activity of -394.

As to `C[C@@H]1O[C@@H](O[C@@H]2[C@H](O)[C@H](N)C[C@@H](N)[C@H]2O[C@H]2O[C@@H](CN)[C@@H](O)[C@H](O)[C@@H]2N)[C@@H](O)[C@@H](O)[C@@H]1O.Cl.Cl.Cl.Cl` (stereo in doubt; form 1), the results for the MIC in the test on Staphylococcus aureus (setting [1]) and against Escherichia coli were 15 µM and 91 µM, respectively.

Turning to `NC[C@@H]1O[C@H](O[C@H]2[C@H](O[C@@H]3O[C@H](CO)[C@@H](O)[C@H](O)[C@@H]3O)[C@H](O)[C@H](N)C[C@H]2N)[C@@H](N)[C@@H](O)[C@@H]1O`, the MIC turned out to be 3 µM (≈ 1.45 µg/mL) in the test on Staphylococcus aureus (setting [1]) and 11 µM (≈ 5.33 µg/mL) in the test on Escherichia coli (setting [2]). This compound also returned an Activity in the test with Ribosomal RNA A-site of -320.

For the compound `NC[C@@H]1O[C@H](O[C@H]2[C@H](O[C@@H]3OC(CO)(CO)[C@@H](O)[C@H](O)[C@@H]3O)[C@H](O)[C@H](N)C[C@H]2N)[C@@H](N)[C@@H](O)[C@@H]1O`, the MIC with Staphylococcus aureus (setting [1]) was 7 µM (≈ 3.6 µg/mL); in the test on Escherichia coli (setting [2]), 22 µM (≈ 11.3 µg/mL). The compound also displayed an Activity in the test with Ribosomal RNA A-site of -315.

On to `C[C@@H]1O[C@@H](O[C@@H]2[C@H](O)[C@H](N)C[C@@H](N)[C@H]2O[C@H]2O[C@@H](CN)[C@@H](O)[C@H](O)[C@@H]2N)[C@@H](O)[C@@H](O)[C@@H]1O` (stereo in doubt; form 2), for which, in the test on Ribosomal RNA A-site, the Activity is -314.
